Test results from patent US10448639B2, “Fungicidal pyrazoles” (FMC CORPORATION, priority 2009, dated 2019).

Columns and labels:
Septoria tritici = assay: Test G: wheat leaf blotch, preventive spray on wheat seedlings, visual disease rating; conditions: wheat leaf blotch; 100 = 100% disease control, 0 = no control relative to controls
[1] = tested on: Puccinia recondita f. sp. tritici; assay: Test H: wheat leaf rust, curative spray on inoculated wheat seedlings, visual disease rating; conditions: wheat leaf rust, curative; 100 = 100% disease control, 0 = no control relative to controls
Botrytis cinerea = assay: Test B: tomato Botrytis, preventive spray on tomato seedlings, visual disease rating; conditions: tomato Botrytis; 100 = 100% disease control, 0 = no control relative to controls
Septoria nodorum = assay: Test F: Septoria glume blotch, preventive spray on wheat seedlings, visual disease rating; conditions: Septoria glume blotch; 100 = 100% disease control, 0 = no control relative to controls
[2] = tested on: Puccinia recondita f. sp. tritici; assay: Test I: wheat leaf rust, preventive spray on wheat seedlings, visual disease rating; conditions: wheat leaf rust, preventive; 100 = 100% disease control, 0 = no control relative to controls
Alternaria solani = assay: Test C: tomato early blight, preventive spray on tomato seedlings, visual disease rating; conditions: tomato early blight; 100 = 100% disease control, 0 = no control relative to controls
[3] = tested on: Erysiphe graminis f sp. tritici; assay: Test J: wheat powdery mildew, preventive spray on wheat seedlings, visual disease rating; conditions: wheat powdery mildew; 100 = 100% disease control, 0 = no control relative to controls

Compound	Test G rating (% disease control) (Septoria tritici) [%]	Test H rating (% disease control) [1] [%]	Test B rating (% disease control) (Botrytis cinerea) [%]	Test F rating (% disease control) (Septoria nodorum) [%]	Test I rating (% disease control) [2] [%]	Test C rating (% disease control) (Alternaria solani) [%]	Test J rating (% disease control) [3] [%]
COc1cc(F)c(-c2c(C)nn(C)c2C(O)c2ccc(F)cc2F)c(F)c1 (stereo not shown) [compound 208]	100	0	100	99	99	100	99
Cc1ccc(Oc2c(-c3c(F)cc(F)cc3F)c(C)nn2C)cc1C [compound 209]	0	0	0	0	0	0	97
COc1cc(F)c(-c2c(C)nn(C)c2Oc2ccc(C)c(C)c2)c(F)c1 [compound 210]	100	99	0	0	94	0	99
COc1cc(F)c(-c2c(C)nn(C)c2Oc2ccc(Cl)c(OC)c2)c(F)c1 [compound 211]	99	0	77	0	17	0	96
COc1cccc(Oc2c(-c3c(F)cc(F)cc3F)c(C)nn2C)c1 [compound 213]	85	94	97	0	96	30	100
Cc1nn(C)c(Nc2cccc(F)c2F)c1-c1ccc(F)cc1F [compound 214]	100	9	98	0	99	51	100
COc1ccc(Cl)c(Nc2c(-c3c(F)cccc3F)c(C)nn2C)c1 [compound 215]	98	0	89	0	94	0	99
COc1ccc(F)c(Nc2c(-c3c(F)cccc3F)c(C)nn2C)c1 [compound 216]	76	0	96	0	26	0	99
COc1cc(Oc2c(-c3c(F)cc(F)cc3F)c(C)nn2C)ccc1C [compound 217]	83	40	75	0	79	0	99
COc1cc(F)c(-c2c(C)nn(C)c2Oc2ccc(Cl)c(C#N)c2)c(F)c1 [compound 218]	99	17	94	0	92	0	87
Cc1cccc(Oc2c(-c3c(F)cc(F)cc3F)c(C)nn2C)c1 [compound 219]	0	17	70	0	0	0	0
COc1cc(F)c(-c2c(C)nn(C)c2Oc2cccc(C)c2)c(F)c1 [compound 220]	98	40	98	40	99	97	100
COc1cccc(Oc2c(-c3c(F)cc(OC)cc3F)c(C)nn2C)c1 [compound 221]	100	17	98	82	99	94	100
Cc1nn(C)c(Oc2cccc(C#N)c2)c1-c1c(F)cc(F)cc1F [compound 222]	100	88	99	0	99	99	100
COc1cc(F)c(-c2c(C)nn(C)c2Oc2cccc(C#N)c2)c(F)c1 [compound 223]	100	0	96	99	100	9	100
Cc1nn(C)c(Oc2ccc(Cl)c(C#N)c2)c1-c1c(F)cc(F)cc1F [compound 224]	100	17	99	0	91	51	100
Cc1nn(C)c(Oc2ccc(Br)c(C#N)c2)c1-c1c(F)cc(F)cc1F [compound 225]	99	0	65	0	79	0	98
Cc1nn(C)c(Nc2cc(F)ccc2F)c1-c1ccc(F)cc1F [compound 226]	96	28	99	0	91	0	100
COc1ccc(Cl)c(Nc2c(-c3ccc(F)cc3F)c(C)nn2C)c1 [compound 227]	99	0	87	0	74	0	98
COc1ccc(Nc2c(-c3ccc(F)cc3F)c(C)nn2C)c(F)c1 [compound 228]	99	0	99	0	80	99	99
Cc1nn(C)c(Nc2cc(F)c(F)cc2F)c1-c1ccc(F)cc1F [compound 229]	99	0	99	0	91	17	98
Cc1nn(C)c(Nc2ccc(F)cc2F)c1-c1ccc(F)cc1F [compound 230]	100	0	99	0	97	99	100
Cc1nn(C)c(Nc2cccc(Cl)c2Cl)c1-c1ccc(F)cc1F [compound 231]	100	0	98	0	86	34	100
Cc1nn(C)c(Oc2cc(F)c(C#N)cc2F)c1-c1ccc(F)cc1Br [compound 233]	100	0	100	99	100	99	100
Cc1nn(C)c(Nc2ccc(F)c(C#N)c2)c1-c1ccc(F)cc1Cl [compound 234]	99	0	99	0	92	0	84
